The source of these data is patent US12588678B2, “Oxazoline compound, synthesis method therefor and application thereof” (NANKAI UNIVERSITY, priority 2019, dated 2026).

Each structure is given as a SMILES string.

The test system of assay [1] is Tetranychus cinnabarinus mite eggs. Put plainly: Activity against mite eggs, dipping method on bean seedling leaves. It counts as in vivo. To be noted: Tetranychus cinnabarinus, 96 h, checked after 4 days; for mortality at 0.05 µg/mL: read-out: mortality of mite eggs (%), 0.05 mg/L; for mortality at 0.1 µg/mL: read-out: mortality of mite eggs (%), 0.1 mg/L; for mortality at 1 µg/mL: read-out: mortality of mite eggs (%), 1 mg/L; for mortality at 10 µg/mL: read-out: mortality of mite eggs (%), 10 mg/L; for mortality at 100 µg/mL: read-out: mortality of mite eggs (%), 100 mg/L; for mortality at 200 µg/mL: read-out: mortality of mite eggs (%), 200 mg/L. The text has this: (§1) The assay examples are used to illustrate the acaricidal activity against Tetranychus cinnabarinus (mortality of mite larvae and mortality of mite eggs) of the compounds having the structure represented by formula (I), and the results are shown in tables 1 to 9, where mortality of mite larvae % =(number of dead mite larvae applied/total number of mite larvae applied)×100, and mortality of mite eggs %= (number of dead mite eggs applied/total number of mite eggs applied)×100.
Tetranychus cinnabarinus bred indoors on bean seedlings was used as a test subject by the dipping method. Move female adult mites onto the newly grown complete bean seedling leaves with two leaves, cut off the bean seedlings, place the bean seedlings in a greenhouse with illumination at 25° C. for laying eggs for 24 hours, then remove adult mites and keep mite eggs. After continuously culturing in the greenhouse for one day, completely soak the bean seedling leaves containing the acarid eggs into the prepared sample solution to be tested for 5-6 seconds by using tweezers, slightly throw off residual liquid, put the bean seedling leaves back to the culture cup, continuously culture for 4 days and then check the result. One of the plants was immersed in a solution containing no sample to be tested and the remaining additives were identical to the sample solution as a blank control. Each compound was replicated three times.

Assay [2] has as its system Tetranychus cinnabarinus mite larvae. Put plainly: Larvicidal activity test, dipping method on bean seedling leaves. The format is in vivo. The conditions noted are these: for acaricidal activity compared with etoxazole: Tetranychus cinnabarinus eggs and larvae, etoxazole as reference; for mortality at 0.05 µg/mL: read-out: mortality of mite larvae (%), 0.05 mg/L; for mortality at 0.1 µg/mL: read-out: mortality of mite larvae (%), 0.1 mg/L; for mortality at 1 µg/mL: read-out: mortality of mite larvae (%), 1 mg/L; for mortality at 10 µg/mL: read-out: mortality of mite larvae (%), 10 mg/L; for mortality at 100 µg/mL: read-out: mortality of mite larvae (%), 100 mg/L; for mortality at 200 µg/mL: read-out: mortality of mite larvae (%), 200 mg/L.
Excerpt: as §1
Tetranychus cinnabarinus bred indoors on bean seedlings was used as a test subject by the dipping method. Move adult mites onto the newly grown complete bean seedling leaves with two leaves, cut off the bean seedlings, place the bean seedlings in a greenhouse with illumination at 25° C. for laying eggs for 24 hours, then remove adult mites and keep mite eggs. And continuously culture in the greenhouse for 5 days until mite eggs hatch into mite larvae (ensuring that the number of the mites on each tested leaf is not less than 60).
Completely immerse the bean seedling leaves containing the mite larvae into the sample solution to be detected with Tween at the prepared concentration for 5-6 seconds by using tweezers, slightly throw off residual liquid, put the bean seedling leaves back to the culture cup, continuously culture for 4 days and check the result. One of the plants was immersed in a solution containing no sample to be tested and the remaining additives were identical to the sample solution as a blank control. Each compound was replicated three times.

Where [3] appears, read: Tetranychus cinnabarinus, 96 h, checked after 4 days.

Turning to `Cc1cccc2ccn(Cc3ccc(C4COC(c5c(F)cccc5F)=N4)cc3)c12` (stereo not drawn) [Compound R1-18], the mortality at 0.01 µg/mL in assay [1] (read-out: mortality of mite eggs (%), 0.01 mg/L) was determined as 30%. In assay [1], the mortality at 0.05 µg/mL was 55%, the mortality at 0.1 µg/mL is 75%, the mortality at 1 µg/mL stood at 80% and the mortality at 10 µg/mL was 100%. Further, in assay [1], the mortality at 100 µg/mL came to 100% and the mortality at 200 µg/mL was 100%. Moreover, the “acaricidal activity compared with etoxazole” value in assay [2] is given as “higher acaricidal activity than etoxazole”. The mortality at 0.01 µg/mL in assay [2] (Tetranychus cinnabarinus, 96 h, read-out: mortality of mite larvae (%), 0.01 mg/L, checked after 4 days) came to 45%. In assay [2] (setting [3]), the mortality at 0.05 µg/mL turned out to be 55%, the mortality at 0.1 µg/mL was found to be 75%, the mortality at 1 µg/mL is 85% and the mortality at 10 µg/mL amounted to 100%. In addition, in assay [2] (setting [3]), the mortality at 100 µg/mL is 100% and the mortality at 200 µg/mL came to 100%. Also, in assay [2] (relative to etoxazole), the “larvicidal activity, times that of etoxazole” value amounted to 5 times.
`Fc1cccc(F)c1C1=NC(c2ccc(Cn3ccc4c(F)cccc43)cc2)CO1` (stereo not drawn) [Compound R1-20]: in assay [1], the mortality at 1 µg/mL worked out at 60%, the mortality at 10 µg/mL stood at 80%, the mortality at 100 µg/mL was determined as 100% and the mortality at 200 µg/mL is 100%. In addition, in assay [2] (setting [3]), the mortality at 1 µg/mL is 45%, the mortality at 10 µg/mL turned out to be 70%, the mortality at 100 µg/mL was found to be 100% and the mortality at 200 µg/mL came to 100%.
As for `Fc1ccc2ccn(Cc3ccc(C4COC(c5c(F)cccc5F)=N4)cc3)c2c1` (stereo not drawn) [Compound R1-21], in assay [1], the mortality at 1 µg/mL was determined as 30%, the mortality at 10 µg/mL is 70%, the mortality at 100 µg/mL worked out at 100% and the mortality at 200 µg/mL was found to be 100%. In assay [2] (setting [3]), the mortality at 10 µg/mL is 60%, the mortality at 100 µg/mL amounted to 100% and the mortality at 200 µg/mL turned out to be 100%.
For the compound `Fc1ccc2c(ccn2Cc2ccc(C3COC(c4c(F)cccc4F)=N3)cc2)c1` (stereo not drawn) [Compound R1-22], in assay [1], the mortality at 0.05 µg/mL amounted to 45%, the mortality at 0.1 µg/mL amounted to 75%, the mortality at 1 µg/mL is 85% and the mortality at 10 µg/mL was determined as 90%. For the same compound, in assay [1], the mortality at 100 µg/mL amounted to 98% and the mortality at 200 µg/mL came out at 100%. For the same compound, in assay [2], the “acaricidal activity compared with etoxazole” value is “higher acaricidal activity than etoxazole”. Moreover, in assay [2] (setting [3]), the mortality at 0.05 µg/mL was determined as 45%, the mortality at 0.1 µg/mL was 70%, the mortality at 1 µg/mL came to 80% and the mortality at 10 µg/mL was found to be 85%. Moreover, in assay [2] (setting [3]), the mortality at 100 µg/mL was determined as 100% and the mortality at 200 µg/mL worked out at 100%.
Regarding `Fc1cccc(F)c1C1=NC(c2ccc(Cn3ccc4cc(Cl)ccc43)cc2)CO1` (stereo not drawn) [Compound R1-23], in assay [1], the mortality at 1 µg/mL is 60%, the mortality at 10 µg/mL was found to be 75%, the mortality at 100 µg/mL came to 100% and the mortality at 200 µg/mL was 100%. Further, in assay [2] (setting [3]), the mortality at 1 µg/mL was 50%, the mortality at 10 µg/mL came out at 80%, the mortality at 100 µg/mL stood at 100% and the mortality at 200 µg/mL was 100%.
As to `Fc1cccc(F)c1C1=NC(c2ccc(Cn3ccc4cc(Br)ccc43)cc2)CO1` (stereo not drawn) [Compound R1-24], in assay [1], the mortality at 1 µg/mL worked out at 40%, the mortality at 10 µg/mL came out at 80%, the mortality at 100 µg/mL was 100% and the mortality at 200 µg/mL came out at 100%. Also, in assay [2] (setting [3]), the mortality at 10 µg/mL came to 60%, the mortality at 100 µg/mL came out at 100% and the mortality at 200 µg/mL is 100%.
Take `COc1ccc2ccn(Cc3ccc(C4COC(c5c(F)cccc5F)=N4)cc3)c2c1` (stereo not drawn) [Compound R1-25]: in assay [1], the mortality at 1 µg/mL came to 40%, the mortality at 10 µg/mL is 65%, the mortality at 100 µg/mL is 90% and the mortality at 200 µg/mL was found to be 100%. Besides, in assay [2] (setting [3]), the mortality at 10 µg/mL came out at 20%, the mortality at 100 µg/mL is 70% and the mortality at 200 µg/mL amounted to 80%.
